# According to patent EP4640238A1, “THERAPEUTIC AGENT FOR PULMONARY DISEASE, HEPATIC DISEASE OR RENAL DISEASE, WHICH CONTAINS PGAM-CHK1 BINDING INHIBITOR” (Kyoto University, priority 2022, dated 2024):
# Columns and labels:
# PGAM-Chk1 binding = PGAM-Chk1 binding inhibition HTP screening using a Cell-base NanoBiT system (primary screening); assay type: cell-based
# Excerpt: Examples of a preferred method for measuring the binding level between PGAM and Chk1 include, in addition to the above, a method that uses PGAM and Chk1 labeled with tags that can bind to each other, and specific examples thereof include the following method that uses a Nanobit system. In Nanobit, a large subunit and a small subunit of a photoprotein prepared based on a luciferase are attached as tags to PGAM and Chk1, respectively. These tags have structures that can bind to each other. […] By measuring the intensity of the luminescence signal at this time, the binding level can be measured with high sensitivity and high quantitativity.
# PGAM-Chk1 binding inhibition HTP (high-throughput) screening using a Cell-base NanoBiT system was carried out. Specifically, the screening was carried out by the following method. In NanoBiT, a large subunit and a small subunit of a photoprotein prepared based on a luciferase are attached as tags to PGAM and Chk1, respectively. These tags have structures that can bind to each other. […] By measuring the intensity of the luminescence signal at this time, the binding level can be measured with high sensitivity and high quantitativity. […] Therefore, a substance that inhibits the binding of PGAM and Chk1 was searched from the drug library, with the decrease in the luminescence signal as an indicator. […]
# [1] = system: BLM pulmonary fibrosis model mice; test: Pathological comparison: Masson's trichrome staining of lung tissue, quantification of fibrosis regions; assay type: in vivo, ICR mice; settings: blue area quantified, 14, 20, and 24 mg/kg intraperitoneally 4 times a week for 2 weeks, day 21 after bleomycin
# Protocol: 2.5 mg/kg of bleomycin was intratracheally administered to 10- to 12-week old ICR mice. Starting 8 days after bleomycin administration, 14, 20, and 24 mg/kg of nutlin 3b or the solvent alone were intraperitoneally administered 4 times a week for 2 weeks. 21 days after bleomycin administration, mice in the nutlin 3b administration group or solvent administration group were sacrificed to sample their lung tissue. The lung tissue was fixed by treatment with 4% paraformaldehyde for 48 hours. The fixed lung tissue was embedded in paraffin, and then sliced into 5 µm thin slices, and set on microscope slides. Masson's trichrome staining was performed on the thin slices of the lung tissue to evaluate fibrosis. Specifically, in Masson's trichrome staining, nuclei are stained black-brown with iron hematoxylin staining, cytoplasm is stained red with […], and collagen fibers are stained blue with aniline blue. Accordingly, to evaluate fibrosis, the stained image was separated into the three primary colors using ImageJ (image analysis software), and the area which stained blue was quantified as the fibrosis regions. The obtained signals of each group were expressed as relative values to the control group (PBS + PEG). The results of Masson's trichrome staining are shown in Fig. 17-1, and the quantification results of the fibrosis regions are shown in Fig. 17-2.
# [2] = system: BLM pulmonary fibrosis model mice; test: Survival rate in BLM pulmonary fibrosis model mice; assay type: in vivo, C57BL6 mice; settings: 2.5 mg/kg bleomycin intratracheally; 20 mg/kg nutlin 3b intraperitoneally 4 times a week for 2 weeks from day 8; deaths within 21 days; versus solvent only
# Protocol: 2.5 mg/kg of bleomycin was intratracheally administered to 10- to 12-week old C57BL6 mice. Starting 8 days after bleomycin administration, 20 mg/kg of nutlin 3b or the solvent alone was intraperitoneally administered 4 times a week for 2 weeks. The mice were checked for survival every day, and the number of mice that died within 21 days after bleomycin administration was counted. In this test, 6 mice in the nutlin 3b non-administration group (solvent only) and 7 mice in the nutlin 3b administration group were used. […] In the figure, 3B indicates nutlin 3b. The same applies to the following figures.
# aged mice [3] = test: Effect on the kidneys of aged mice (HE staining, hyalinization, marker expression); assay type: in vivo, C57BL/6J; settings: 20-month-old aged mice, once a week for 3 months, versus Vehicle
# Protocol: Nutlin 3b was administered to C57BL/6J, 20-month-old aged mice once a week for 3 months. After 3 months, the mice were sacrificed, and HE staining and mRNA expression analysis of the renal tissue were performed. As a comparison subject, the renal tissue of young mice (C57BL/6J, 10-week old) and aged mice with no administration of nutlin 3b (Vehicle) were used.
# Also, the increase in senescence markers and SASP markers induced in aged renal tissue was suppressed by nutlin 3b administration (Fig. 20-3).
# [4] = system: FoxM1 and its downstream target genes (Plk1, Ccnb2, Aspm, and Cep55); test: Expression of FoxM1 and its downstream target genes in lung tissue of BLM pulmonary fibrosis model mice (real-time PCR); assay type: in vivo, ICR mice; settings: lung tissue 21 days after 2.5 mg/kg bleomycin; 20 mg/kg intraperitoneally 4 times a week for 2 weeks; versus solvent
# Protocol: The influence of the nutlin 3b administration to FoxM1 target factors in bleomycin-induced pulmonary fibrosis was examined. Specifically, 2.5 mg/kg of bleomycin was intratracheally administered to 10- to 12-week old ICR mice. Starting 8 days after bleomycin administration, 20 mg/kg of nutlin 3b or the solvent alone was intraperitoneally administered 4 times a week for 2 weeks. 21 days after bleomycin administration, mice in the nutlin 3b administration group and the solvent administration group were sacrificed to sample their lung tissue. In the test, 3 mice in the nutlin 3b non-administration group (solvent only) and 3 mice in the nutlin 3b administration group were used. The collected lung tissue was immersed in a sufficient amount of RNAlater and stored at 4°C overnight. The next day, the lung tissue was removed from the RNAlater, and the total RNA was collected using TRIzole. Then, mRNA was reverse-transcribed using a ReverTra Ace qPCR RT kit to prepare cDNA. Real-time PCR was performed on the prepared cDNA using primers specific to FoxM1 and its downstream target genes (Plk1, Ccnb2, Aspm, and Cep55).
# [5] = system: fibrosis-related genes (Col1a2, Col5a2, Fibronectin, and Toropelastin); test: Expression of fibrosis-related mRNA in lung tissue of BLM pulmonary fibrosis model mice (real-time PCR); assay type: in vivo, ICR mice; settings: lung tissue 21 days after 2.5 mg/kg bleomycin; 14, 20, and 24 mg/kg intraperitoneally 4 times a week for 2 weeks; versus solvent
# Protocol: 2.5 mg/kg of bleomycin was intratracheally administered to 10- to 12-week old ICR mice. Starting 8 days after bleomycin administration, 14, 20, and 24 mg/kg of nutlin 3b or the solvent alone were intraperitoneally administered 4 times a week for 2 weeks. 21 days after bleomycin administration, mice in the nutlin 3b administration group or solvent administration group were sacrificed to sample their lung tissue. In the test, 3 mice in the nutlin 3b non-administration group (solvent only) and 3 mice in the nutlin 3b administration group were used. The same applies to the following tests. The collected lung tissue was immersed in a sufficient amount of RNAlater and stored at 4°C overnight. The next day, the lung tissue was removed from the RNAlater, and the total RNA was collected using TRIzole. Then, mRNA was reverse-transcribed using a ReverTra Ace qPCR RT kit to prepare cDNA. Real-time PCR was performed on the prepared cDNA using primers specific to fibrosis-related genes (Col1a2, Col5a2, Fibronectin, and Toropelastin).
# aged mice [6] = test: Effect on the lungs of aged mice (HE staining and p21 antibody staining); assay type: in vivo, C57BL/6J; settings: 20-month-old aged mice, once a week for 3 months; versus Vehicle
# Protocol: Nutlin 3b was administered to C57BL/6J, 20-month-old aged mice once a week for 3 months. After 3 months, the mice were sacrificed, and HE staining and mRNA expression analysis of the lung tissue were performed. As a comparison subject, the lung tissue of young mice (C57BL/6J, 10-week old) and aged mice with no administration of nutlin 3b (Vehicle) were used.
Compound,luminescence signal (binding level between PGAM and Chk1) (PGAM-Chk1 binding),fibrosis areas induced by bleomycin in the lungs [1],survival rate [2],increase in senescence markers and SASP markers induced in aged renal tissue (aged mice [3]),glomerular hyalinization (four-level score) (aged mice [3]; HE staining of renal tissue),interstitial hyalinization positive rate (aged mice [3]; HE staining of renal tissue),expression of FoxM1 target genes [4],expression of the fibrosis-related genes [5],p21-positive cells in aged lung tissue (aged mice [6])
nutlin,luminescence signal decreases,–,–,–,–,–,–,–,–
"COc1ccc(C2=N[C@H](c3ccc(Cl)cc3)[C@H](c3ccc(Cl)cc3)N2C(=O)N2CCNC(=O)C2)c(OC(C)C)c1 [nutlin 3b, Nutlin-3b]",–,smaller than those of the control group,improved the survival rate,suppressed,significant improvement in hyalinization,significant improvement in hyalinization,suppression of the expression of FoxM1 target genes was observed,decreased,significantly suppressed
